Experimental data: patent US8834930B2, “Pulmonary delivery of a fluoroquinolone” (Novartis AG, priority 2008, dated 2014)

Tests used:
[1] = Surface properties (BET specific surface area, porosity, rugosity); assay type: physicochemical
Excerpt: As used herein, specific surface area (SSA) refers to the SSA calculated from gas adsorption data according to a theory developed by Brunauer, Emmett, and Teller (J Amer Chem Soc 1938, 60:309), generally referred to as the BET method.
As used herein, particle porosity refers to the total pore volume in %, calculated from nitrogen gas absorption data. In nitrogen adsorption, the pores are filled (and emptied) according to the Kelvin capillary condensation equation. As the partial pressure of nitrogen increases, condensation of the gas will begin in the smaller pores and progressively fill larger and larger pores until bulk condensation occurs. Using this technique, nitrogen is first condensed in the pores by setting the partial pressure of nitrogen to a value near saturation. Then, the nitrogen is gradually desorbed in a stepwise fashion by reducing its vapor pressure. The pore size distribution is calculated by analyzing the nitrogen desorption isotherm using the Kelvin equation to determine the amount of condensed nitrogen in the pores (assuming a cylindrical pore geometry), wherein the adsorptive loss at each step represents the core volume of pores emptied during that step. The calculation is automated, and follows the algorithm proposed by Barrett et al (Barrett E P, Joyner L G, Halenda P P: The determination of pore volume and area distributions in porous substances I. computations from nitrogen isotherms. J Amer Chem Soc 1951, 73:373-380). This approach holds for pore diameters as small as about 2 nm, i.e., down to the […] region.
Rugosity (Sv) is a measure of the surface roughness of an engineered powder. For the purposes of this invention, rugosity is calculated from the specific surface area obtained from BET measurements, the true density obtained by helium pycnometry, and the surface/volume ratio of the particle obtained by laser diffraction (Sympatec), viz:
Significant increases in specific surface area, porosity, and rugosity Sv are observed for the phospholipid-coated particles relative to micronized drug. […]

[2] = Powder dispersibility, laser diffraction with varied RODOS dispersing pressure; assay type: physicochemical; settings: dispersing pressure 0.2 bar
Description: As used herein, the relative dispersibility of spray-dried powders is determined with the Sympatec (laser diffraction) by varying the dispersing pressure of the RODOS dispersion unit, from about 0.2 bar to 4.0 bar. As used herein, the dispersibility index, δ (delta), is defined as the ratio of the x50 measured at a dispersing pressure of 0.2 bar to that at 4.0 bar.
The relative dispersibility of powder formulations can be studied with the laser diffraction technique by varying the dispersing pressure in the RODOS disperser. […] The ratio of the median particle sizes measured at low and high dispersing pressures is a measure of the dispersibility of the powder.

[3] = background; cited from earlier work

In the case of `O=C(O)c1cn(C2CC2)c2cc(N3CCNCC3)c(F)cc2c1=O` [Lot BXA1GE7], the “Rugosity Sv” value ([1]; API shape factor = 1.27) is reported as 1.1, the “Specific Surface Area” value ([1]; BET) is reported as 4.4 m^2/g and the “Sympatec Sv” value ([1]; laser diffraction) is reported as 4.91 m^2/cm^3.

With `O=C(O)c1cn(C2CC2)c2cc(N3CCNCC3)c(F)cc2c1=O` [ciprofloxacin betaine] the x50 [2] was 3.5 μm.

For `O=C(O)c1cn(C2CC2)c2cc(N3CCNCC3)c(F)cc2c1=O` [ciprofloxacin], the pK1 [3] is listed as 6.0.
